Experiments:
GI transit = GI transit score (GITS) by transit of radio-opaque markers (SITZMARKS) in subjects given loperamide; type: in vivo, healthy subjects; settings: for GI Score: x-ray Day 4, group mean, normal 255.56
Protocol: Subjects were randomly assigned to receive one of the following five treatments: • Group 1: […] Study Assessments Subjects were assessed for their pain at the I.V. infusion site using a categorical four-point verbal scale (i.e., no discomfort/pain, mild discomfort/pain, moderate pain, or severe pain). The Investigator also assessed certain characteristics (e.g., erythema) of the I.V. site (i.e., none, mild, moderate, or severe). Abdominal x-rays and x-rays of stool samples were performed to determine the location of the […] markers. Oral […] capsules were administered on Days 1, 2, and 3 at the same time that study medication is administered each day.

[1] = Plasma exposure (AUC (τ)) of I.V. alvimopan given for 4 days with loperamide; type: in vivo, healthy subjects; settings: group mean
Protocol: Subjects were randomly assigned to receive one of the following five treatments: • Group 1: […] Study Assessments Serial blood samples were collected for the determination of concentrations of alvimopan and its amide hydrolysis metabolite in plasma. The appropriate dose was drawn into the delivery system, normal saline was added to bring the total volume to 6 mL, and the contents will be mixed thoroughly. Placebo for alvimopan I.V. was 6 mL of normal saline. […] The first eight subjects in each treatment group followed a full sampling schedule and the last four subjects followed a sparse sampling schedule. For the first eight subjects (full sampling schedule), blood samples was collected just prior to administration of alvimopan I.V. on Days 1 through 4 (four samples); and at 0.5, 1, 1.5, 2, 5, 10, 20, 30, and 60 minutes and at 2, 4, 6, 8, 10, 12, 16, 24, 48, 72, 96, 120, 144, and 168 hours after the end of the infusion of alvimopan I.V. on Day 4. This is a total of 27 samples per subject (135 mL per subject). For the last four subjects in each treatment group (sparse sampling schedule), blood was collected prior to administration of alvimopan I.V. on Days 1 through 4 (four samples), and immediately following the last infusion on Day 4. Subjects were randomized to have one sample collected during each of the following intervals, relative to the end of the infusion on Day 4: […]

Solubility in water = type: physicochemical; settings: except at low or high pH conditions
[2] = biological target: μ opioid receptors in the GI tract (Homo sapiens, UniProt P35372); assay: Free alvimopan plasma concentration after a 12 mg oral dose before surgery, compared with Ki; type: in vivo, patients
μ opioid receptors in the GI tract, sequence (P35372 whole entry): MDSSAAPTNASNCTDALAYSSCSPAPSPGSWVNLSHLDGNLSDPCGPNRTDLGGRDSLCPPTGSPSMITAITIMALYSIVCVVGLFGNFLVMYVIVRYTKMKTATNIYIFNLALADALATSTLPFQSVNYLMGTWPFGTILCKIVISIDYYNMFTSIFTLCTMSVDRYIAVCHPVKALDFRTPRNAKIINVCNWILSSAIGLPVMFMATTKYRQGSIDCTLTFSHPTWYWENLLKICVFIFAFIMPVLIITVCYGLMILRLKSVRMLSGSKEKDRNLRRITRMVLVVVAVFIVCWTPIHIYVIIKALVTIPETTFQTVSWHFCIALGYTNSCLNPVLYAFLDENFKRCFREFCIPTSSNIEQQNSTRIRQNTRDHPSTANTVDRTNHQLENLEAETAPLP
Protocol: A Practical Introduction to Structure, Mechanism, and Data Analysis, 2nd Edition, (New York: Wiley-VCH, 2000), page 88, the disclosure of which is incorporated herein by reference.
Twelve milligrams of alvimopan (two 6 mg capsules) was administered orally to patients about 120 minutes prior to surgery. The free alvimopan plasma concentration was measured for about 24 hours.

[3] = Group 3 (alvimopan 1 mg I.V. b.i.d. + loperamide 2 mg p.o. q.i.d.)
[4] = Group 4 (alvimopan 0.45 mg I.V. b.i.d. + loperamide 2 mg p.o. q.i.d.)
[5] = Group 5 (alvimopan 0.1 mg I.V. b.i.d. + loperamide 2 mg p.o. q.i.d.)

Compound	GI Score (GI transit; [3])	GI score compared with Group 2 (loperamide + placebo) and normal (Group 1) (GI transit; Group 4)	GI Score (GI transit; [4])	GI score compared with Group 2 (loperamide + placebo) and normal (Group 1) (GI transit; Group 5)	GI Score (GI transit; [5])	AUC (τ) of Alvimopan [1, 3] [ng·mL/h]	AUC (τ) of Alvimopan [1, 4] [ng·mL/h]	AUC (τ) of Alvimopan [1, 5] [ng·mL/h]	solubility in water (Solubility in water)	free plasma concentrations versus saturation of μ opioid receptors in the GI tract ([2]; single 12 mg oral dose (two 6 mg capsules), about 120 minutes prior to surgery, FIG. 1)	Maximum free plasma concentrations achieved relative to the Ki ([2]; single 12 mg oral dose, FIG. 1) [fold]	receptor occupancy at 12 mg ([2]; single 12 mg oral dose, read-out: estimated receptor occupancy) [%]	GI Score (GI transit; Group 2: loperamide 2 mg p.o. q.i.d. + placebo for alvimopan I.V.)
C[C@H]1CN(C[C@H](Cc2ccccc2)C(=O)NCC(=O)O)CC[C@@]1(C)c1cccc(O)c1 [alvimopan, [[(2S)-2-[[(3R,4R)-4-(3-hydroxyphenyl)-3,4-dimethylpiperidin-1-yl]methyl]-3-phenylpropanoyl]amino]acetic acid dihydrate]	231	statistically different from Group 2	274.62	statistically different from Group 2	278.5	4.36	22.06	49.79	low solubility in water	sufficient to substantially saturate μ opioid receptors in the GI tract	11	> 68	
CN(C)C(=O)C(CCN1CCC(O)(c2ccc(Cl)cc2)CC1)(c1ccccc1)c1ccccc1 [loperamide, reference compound]													208.67

— patent US8946262B2, “Methods of preventing and treating gastrointestinal dysfunction” (Adolor Corporation, priority 2003, dated 2015)
